Some test systems named below: SW-620; K562; MDA-MB-435; SNB-75; MOLT-4; BT-549; SK-MEL-5; OVCAR-8; OVCAR-4; TK-10; HT-29; SF-268; SNB-19; KM12; UACC-257; Hs-578T; HOP-92; PC-3; SR; SK-MEL-2.
Holding throughout (assay): NCI tumour cell line growth inhibition, 48 h

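How tested: cells in 96-well plates exposed to compound for 48 hours at five concentrations. The concentration for 50% growth inhibition is given as GI50.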 Active and inactive are the calls of the source. Rule as the data show it: active = GI50 up to about 1.1 µM and inactive = higher. Where a SMILES comes first, the peptide text is derived from it. [ ]: non-standard residue; d: D form. The star is where a group is joined. ξ: configuration not given here. X38 = O=C(OCc1ccccc1)[C@@H]1CCC[C@H]1N*; Fmoc = O=C(OCC1c2ccccc2-c2ccccc21)*; ξW = NC(Cc1c[nH]c2ccccc12)C(=O)O; ξF = NC(Cc1ccccc1)C(=O)O; Boc = CC(C)(C)OC(=O)*; ξK = NCCCCC(N)C(=O)O; ξT = CC(O)C(N)C(=O)O; tBu = CC(C)(C)* Bounds are passed on as bounds.

`CCOC(=O)Cc1nc2nn(Cc3ccccc3)cc2c(=O)[nH]1`: the GI50 in the assay on SW-620, in the assay with K562, in the assay with MDA-MB-435, with SNB-75, with MOLT-4 and with BT-549 was > 100 µM (inactive) throughout. Besides, the GI50 in the assay with SK-MEL-5, with OVCAR-8, in the assay on OVCAR-4, in the assay with TK-10, in the assay on HT-29 and in the assay with SF-268 was > 100 µM (inactive) each time. The GI50 in the assay on SNB-19, in the assay on KM12 and with UACC-257 was > 100 µM (inactive) throughout.

Consider `COC(=O)[C@@H]1CN(C(=O)CCc2ccccc2)C(=O)N1`, for which the GI50 with SW-620, with Hs-578T, with K562, with MDA-MB-435, with HOP-92 and with MOLT-4 was > 100 µM (inactive) each time. Also, the GI50 in the assay on SK-MEL-5, in the assay with PC-3, with OVCAR-8, in the assay with OVCAR-4, in the assay with SR and in the assay with TK-10 was > 100 µM (inactive) in each case. The GI50 with HT-29, in the assay on SF-268, in the assay on SNB-19, with KM12, with SK-MEL-2 and in the assay with UACC-257 was > 100 µM (inactive) in each case.

As to `Cc1c2c(c(O)c3c(O)cccc13)C(=O)C1(O)C(=O)C(C(=O)NCNc3ccc(C(N)=O)cn3)=C(O)C(N(C)C)C1C2` (stereo not drawn), the GI50 in the assay with SW-620 is 3.52 µM (inactive); in the assay on K562, 2.4 µM (inactive); in the assay with MDA-MB-435, 3.69 µM (inactive); in the assay on SNB-75, 2.84 µM (inactive); in the assay with HOP-92 it was 2.01 µM (inactive); in the assay on MOLT-4, 2.74 µM (inactive). Moreover, the GI50 is 3.48 µM (inactive) in the assay with BT-549; 2.16 µM (inactive) in the assay with SK-MEL-5; 3.68 µM (inactive) in the assay on PC-3; 3.21 µM (inactive) with OVCAR-8; 1.93 µM (inactive) in the assay on OVCAR-4; 3.05 µM (inactive) with SR. The GI50 with TK-10 was 5.15 µM (inactive); with HT-29, 3.89 µM (inactive); in the assay with SF-268, 3.61 µM (inactive); in the assay with KM12, 3.53 µM (inactive); in the assay on SK-MEL-2, 6.95 µM (inactive); with UACC-257 it was 3.66 µM (inactive).

On to `O=C1c2ccccc2NC(=O)C2C1C(c1ccccc1)CC2(O)c1ccccc1` (stereo not drawn), for which the GI50 is 50.8 µM (inactive) in the assay on SW-620; 34.5 µM (inactive) in the assay with Hs-578T; > 100 µM (inactive) with MDA-MB-435; 0.0128 µM (active) in the assay with SNB-75; 9.89 µM (inactive) with HOP-92; 15.4 µM (inactive) with MOLT-4. Also, the GI50 is 84.5 µM (inactive) in the assay with SK-MEL-5; 18 µM (inactive) with PC-3; > 100 µM (inactive) in the assay with OVCAR-8; 17.7 µM (inactive) in the assay with OVCAR-4; 70.3 µM (inactive) with SR; 39.3 µM (inactive) with TK-10. The GI50 in the assay with HT-29 was 26 µM (inactive); in the assay with SF-268 it was > 100 µM (inactive); in the assay with SNB-19, 35.2 µM (inactive); in the assay on KM12, 48 µM (inactive); in the assay with SK-MEL-2, 21.9 µM (inactive); in the assay with UACC-257 it was 79.4 µM (inactive).

For the compound `C=CCn1c(=O)c2ccccc2[n+]2c(-c3cccc([N+](=O)[O-])c3)csc12`, the GI50 with SW-620 is > 100 µM (inactive); in the assay with Hs-578T it was 24.4 µM (inactive); in the assay with K562, 28.4 µM (inactive); in the assay on MDA-MB-435, 40.8 µM (inactive); with SNB-75 it was 17.5 µM (inactive); in the assay on HOP-92, 56.2 µM (inactive). Also, the GI50 with MOLT-4 was 24.7 µM (inactive); in the assay with SK-MEL-5 it was 11.4 µM (inactive); in the assay with PC-3, 30.9 µM (inactive); with OVCAR-8 it was 34.8 µM (inactive); with OVCAR-4, 64.4 µM (inactive); with SR it was 17 µM (inactive). The GI50 in the assay on TK-10 is 38.4 µM (inactive); with HT-29 it was 30.8 µM (inactive); in the assay on SF-268, 48.9 µM (inactive); in the assay with SNB-19, > 100 µM (inactive); with KM12, 45.4 µM (inactive); in the assay on SK-MEL-2, 30.6 µM (inactive). The GI50 in the assay with UACC-257 is 36.3 µM (inactive).

With `COc1cccc(/C(Cl)=C(\C=O)c2cccc(OC)c2)c1`, the GI50 in the assay with SW-620 was 6.81 µM (inactive); in the assay with K562, 4.06 µM (inactive); with SNB-75 it was 8.24 µM (inactive); in the assay with HOP-92 it was 12.4 µM (inactive); with MOLT-4, 7.74 µM (inactive); with SK-MEL-5, 11.5 µM (inactive). Moreover, the GI50 is 10.7 µM (inactive) with OVCAR-8; 13.8 µM (inactive) in the assay on OVCAR-4; 5.35 µM (inactive) with SR; 20.4 µM (inactive) with TK-10; 12.3 µM (inactive) in the assay with HT-29; 3.88 µM (inactive) in the assay with SF-268. For the same compound, the GI50 in the assay with SNB-19 was 11.3 µM (inactive); in the assay on KM12 it was 12.8 µM (inactive); in the assay with SK-MEL-2, 15.4 µM (inactive); in the assay on UACC-257, 15.3 µM (inactive).

Regarding `Cc1nsc2cc(Cl)n(C)c(=O)c12`, the GI50 is > 100 µM (inactive) in the assay on SW-620; > 100 µM (inactive) in the assay on K562; 66.4 µM (inactive) in the assay with SNB-75; 59.7 µM (inactive) with HOP-92; > 100 µM (inactive) with MOLT-4; > 100 µM (inactive) in the assay on SK-MEL-5. Further, the GI50 in the assay on OVCAR-8, in the assay on OVCAR-4, in the assay with SR, in the assay on TK-10, in the assay on HT-29 and in the assay with SF-268 was > 100 µM (inactive) each time. In addition, the GI50 in the assay with SNB-19, in the assay with KM12, with SK-MEL-2 and in the assay with UACC-257 was > 100 µM (inactive) in each case.

For the compound `C=C(Cl)C(Br)(CBr)CCC(Br)C(C)(C)Br` (stereo not drawn), the GI50 was 2.7 µM (inactive) in the assay on SW-620; 1.88 µM (inactive) in the assay on K562; > 10 µM (inactive) with MDA-MB-435; 4.7 µM (inactive) in the assay with SNB-75; 5.06 µM (inactive) with HOP-92; 1.08 µM (active) in the assay on MOLT-4. Besides, the GI50 in the assay on BT-549 is > 10 µM (inactive); in the assay on SK-MEL-5, > 10 µM (inactive); in the assay with PC-3, > 10 µM (inactive); in the assay with OVCAR-4, 3.99 µM (inactive); in the assay with TK-10, > 10 µM (inactive); in the assay on HT-29, 3.33 µM (inactive). For the same compound, the GI50 with SF-268 is 2.51 µM (inactive); in the assay with SNB-19, 4.25 µM (inactive); with KM12, 4.37 µM (inactive).

Regarding `CC(=O)OCC1OC(n2ccc(=O)[nH]c2=O)C(OC(C)=O)C(OC(C)=O)C1OC(C)=O` (stereo not drawn), the GI50 was > 100 µM (inactive) in the assay with SW-620; > 100 µM (inactive) with K562; 50.6 µM (inactive) with SNB-75; > 100 µM (inactive) with HOP-92; > 10 µM (inactive) with MOLT-4; > 100 µM (inactive) in the assay with SK-MEL-5. Also, the GI50 with OVCAR-8, in the assay on OVCAR-4, with SR, in the assay on TK-10, in the assay on HT-29 and with SF-268 was > 100 µM (inactive) each time. In addition, the GI50 in the assay on SNB-19, in the assay with KM12, with SK-MEL-2 and with UACC-257 was > 100 µM (inactive) throughout.

With `NC(=S)c1cccc(C2Nc3ccccc3O2)c1` (stereo not drawn), the GI50 was 75.7 µM (inactive) in the assay with SW-620; > 100 µM (inactive) in the assay on Hs-578T; 30.5 µM (inactive) in the assay on K562; 43 µM (inactive) with MDA-MB-435; > 100 µM (inactive) in the assay on SNB-75; > 100 µM (inactive) in the assay with HOP-92. Besides, the GI50 in the assay on MOLT-4 is 41.7 µM (inactive); in the assay on SK-MEL-5, 23.5 µM (inactive); in the assay on PC-3, 51.2 µM (inactive); with OVCAR-8, > 100 µM (inactive); in the assay with OVCAR-4, 31.5 µM (inactive); in the assay with SR, > 100 µM (inactive). Further, the GI50 with TK-10 was 81.1 µM (inactive); in the assay on HT-29, 92.9 µM (inactive); in the assay on SF-268 it was > 100 µM (inactive); in the assay with SNB-19 it was > 100 µM (inactive); in the assay with KM12 it was 37.2 µM (inactive); with SK-MEL-2 it was > 100 µM (inactive). The GI50 with UACC-257 is 22.1 µM (inactive).

Take `CC(OC(C)(C)C)C(NC(=O)C(CCCCNC(=O)OC(C)(C)C)NC(=O)C(Cc1c[nH]c2ccccc12)NC(=O)C(Cc1ccccc1)NC(=O)OCC1c2ccccc2-c2ccccc21)C(=O)NC(Cc1ccccc1)C(=O)N[C@@H]1CCC[C@H]1C(=O)OCc1ccccc1` (stereo partly drawn) (Fmoc-[ξF][ξW][ξK](Boc)[ξT](tBu)[ξF]-X38): the GI50 was > 100 µM (inactive) with SW-620; 31 µM (inactive) with Hs-578T; > 100 µM (inactive) with K562; > 100 µM (inactive) in the assay on MDA-MB-435; > 100 µM (inactive) with SNB-75; > 100 µM (inactive) in the assay on HOP-92. In addition, the GI50 with MOLT-4 is > 100 µM (inactive); with SK-MEL-5, 14.6 µM (inactive); in the assay on PC-3, > 100 µM (inactive); with OVCAR-8, > 100 µM (inactive); with OVCAR-4 it was > 100 µM (inactive); in the assay with SR, > 100 µM (inactive). In addition, the GI50 was > 100 µM (inactive) with TK-10; > 100 µM (inactive) with HT-29; > 100 µM (inactive) with SF-268; > 100 µM (inactive) in the assay on KM12; 32.1 µM (inactive) in the assay on SK-MEL-2; > 100 µM (inactive) in the assay on UACC-257.

(Values after ChEMBL document CHEMBL1201862, “PubChem BioAssay data set” (2004).)
